From patent publication US20240109885A1, “2,3-DIHYDRO-1H-PYRROLO[3,2-B]PYRIDINE DERIVATIVE, PREPARATION METHOD THEREFOR, AND APPLICATION THEREOF” (Abbisko Therapeutics Co., Ltd, priority 2020, published 2024)

Experiments:
Assay type in all cases: cell-based
A431 (EGFR-WT) = experiment: Cell proliferation assay (CellTiter-Glo), A431 cells; conditions: Homo sapiens, A-431, 72 hrs, CTG assay, * = average of multiple measurements
Procedure: (§1) I. Cell proliferation assay (i) Reagents and consumables • Fetal bovine serum (FBS) (GBICO, Cat #10099-141); • CellTiter-Glo® Luminescent Cell Viability Assay Kit (Promega, Cat #G7572); • Black transparent flat-bottomed 96-well plate (Corning®, Cat #3603).
(§2) • SpectraMax Multi-Label Microplate Detector MD, 2104-0010A; • CO2 incubator, Thermo Scientific 3100 Series; • Biosafety cabinet, Thermo Scientific, 1300 Series type A2; • Inverted microscope, Olympus, CKX41SF; • Siemens refrigerator KK25E76TI. (iii) Cell lines and culture conditions
(§3) (iv) Experimental procedures 1. Cell culture and seeding: • (1) Cells in the logarithmic growth phase were harvested, and counted using a platelet counter. Cell viability was detected by the trypan blue exclusion assay to ensure that the cell viability was above 90%. • (2) The cell concentration was adjusted to achieve the final density; and 90 μL of the cell suspension was added to the 96-well plate. • (3) The cells were incubated in the 96-well plate overnight at 37° C. in the presence of 5% CO2 with 95% humidity. 2. TO benchmark data: • (1) 10 μL of PBS was added to each well of the TO flat plate containing the cells. • (2) The CTG reagent was thawed, and the cell plate was equilibrated to room temperature for 30 min. • (3) An equal volume of CTG solution was added to each well. • (4) The cells were shaken for 5 min on an orbital shaker for lysis. • (5) The cell plate was left at room temperature for 20 min to stabilize luminescent signals. • (6) The values of TO luminescent signals were read. 3. Compound dilution and addition • (1) According to the compound information table, a corresponding volume of DMSO was added to the corresponding compound powder to prepare a 10 mM stock solution. • (2) Compound solutions diluted at 1000 fold and 3.16 fold were prepared. • (3) The compound solution diluted at 1000 fold was diluted at 100 fold with PBS, to prepare the compound solutions at 10 fold in 9 concentrations, with the maximum concentration of […]; and the compound solution was diluted at 3.16 fold. 10 μL of medicament solution was added to each well of the seeded 96-well plate. Three replicate wells were provided for each concentration of the compound, and the final concentration of DMSO was 0.1%. • (4) Cells were placed in the 96-well plate containing the medicament and subsequently cultured for 72 hrs at 37° C. in the presence of 5% CO2 with 95% humidity, and then, CTG assay was conducted. 4. Reading of luminescent signals • (1) The CTG reagent was thawed, and the cell plate was equilibrated to room temperature for 30 min. • (2) An equal volume of CTG solution was added to each well. • (3) The cells were shaken for 5 min on an orbital shaker for lysis.
(§4) (4) The cell plate was left at room temperature for 20 min to stabilize the luminescent signals. • (5) Luminescent values were read. Data processing
(§5) The data were analyzed using software GraphPad Prism 7.0, and fitted by the nonlinear S-curve regression to obtain a dose-effect curve, based on which the IC50 value (unit: nM) was calculated, with the specific test results shown in Table 1.
(§6) Cell viability (%)=(Lum test medicament-Lum culture medium control)/(Lum cell control-Lum culture medium control)×100%.

[1] = target: Ba/F3 EGFR-D770-N771ins_SVD (Homo sapiens, UniProt P00533, DUP768-770, cells depend on it); experiment: Cell proliferation assay (CellTiter-Glo), Ba/F3 EGFR-D770-N771ins_SVD cells; conditions: 72 hrs, CTG assay, * = average of multiple measurements, read-out: Ba/F3 EGFR-D770-N771ins_SVD (nM), IC50 of cell proliferation
Chain of Ba/F3 EGFR-D770-N771ins_SVD (P00533 with tags, fused parts or gaps DUP768-770): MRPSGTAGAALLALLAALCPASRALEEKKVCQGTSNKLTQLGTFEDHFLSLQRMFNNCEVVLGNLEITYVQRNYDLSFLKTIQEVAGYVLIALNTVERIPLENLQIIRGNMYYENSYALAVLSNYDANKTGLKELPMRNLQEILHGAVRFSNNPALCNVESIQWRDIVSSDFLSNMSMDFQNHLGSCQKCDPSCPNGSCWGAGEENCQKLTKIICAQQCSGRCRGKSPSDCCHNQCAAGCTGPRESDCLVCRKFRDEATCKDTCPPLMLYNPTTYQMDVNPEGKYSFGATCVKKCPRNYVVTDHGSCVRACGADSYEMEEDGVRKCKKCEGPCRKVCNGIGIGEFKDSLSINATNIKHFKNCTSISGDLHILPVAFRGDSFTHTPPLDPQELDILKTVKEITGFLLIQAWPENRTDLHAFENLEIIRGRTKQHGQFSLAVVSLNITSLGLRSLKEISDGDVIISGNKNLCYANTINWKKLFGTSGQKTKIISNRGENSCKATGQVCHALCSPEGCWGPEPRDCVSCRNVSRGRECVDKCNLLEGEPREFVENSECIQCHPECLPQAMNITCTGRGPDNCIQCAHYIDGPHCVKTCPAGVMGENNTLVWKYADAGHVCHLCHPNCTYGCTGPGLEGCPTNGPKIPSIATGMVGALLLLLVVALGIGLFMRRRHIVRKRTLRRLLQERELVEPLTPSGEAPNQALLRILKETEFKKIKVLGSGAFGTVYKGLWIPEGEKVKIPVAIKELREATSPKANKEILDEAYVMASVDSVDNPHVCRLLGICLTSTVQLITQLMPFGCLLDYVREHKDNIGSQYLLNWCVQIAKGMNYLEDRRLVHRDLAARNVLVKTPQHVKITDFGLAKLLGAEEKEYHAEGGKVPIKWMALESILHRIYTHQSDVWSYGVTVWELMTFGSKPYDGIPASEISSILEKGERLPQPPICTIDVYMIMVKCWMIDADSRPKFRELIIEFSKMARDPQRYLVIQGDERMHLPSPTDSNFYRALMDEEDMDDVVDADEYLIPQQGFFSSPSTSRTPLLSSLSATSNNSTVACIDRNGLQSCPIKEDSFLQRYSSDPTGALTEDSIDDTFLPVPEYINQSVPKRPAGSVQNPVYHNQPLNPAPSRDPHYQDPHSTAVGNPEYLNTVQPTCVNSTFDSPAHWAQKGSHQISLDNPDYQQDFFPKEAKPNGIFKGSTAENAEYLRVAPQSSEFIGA
Procedure: as §1, §2, §3, §4, §5, §6

[2] = target: Ba/F3 EGFR-V769_D770insASV (Homo sapiens, UniProt P00533, DUP767-769, cells depend on it); experiment: Cell proliferation assay (CellTiter-Glo), Ba/F3 EGFR-V769_D770insASV cells; conditions: 72 hrs, CTG assay, * = average of multiple measurements, read-out: Ba/F3 EGFR-V769_D770insASV (nM), IC50 of cell proliferation
Chain of Ba/F3 EGFR-V769_D770insASV (P00533 with tags, fused parts or gaps DUP767-769): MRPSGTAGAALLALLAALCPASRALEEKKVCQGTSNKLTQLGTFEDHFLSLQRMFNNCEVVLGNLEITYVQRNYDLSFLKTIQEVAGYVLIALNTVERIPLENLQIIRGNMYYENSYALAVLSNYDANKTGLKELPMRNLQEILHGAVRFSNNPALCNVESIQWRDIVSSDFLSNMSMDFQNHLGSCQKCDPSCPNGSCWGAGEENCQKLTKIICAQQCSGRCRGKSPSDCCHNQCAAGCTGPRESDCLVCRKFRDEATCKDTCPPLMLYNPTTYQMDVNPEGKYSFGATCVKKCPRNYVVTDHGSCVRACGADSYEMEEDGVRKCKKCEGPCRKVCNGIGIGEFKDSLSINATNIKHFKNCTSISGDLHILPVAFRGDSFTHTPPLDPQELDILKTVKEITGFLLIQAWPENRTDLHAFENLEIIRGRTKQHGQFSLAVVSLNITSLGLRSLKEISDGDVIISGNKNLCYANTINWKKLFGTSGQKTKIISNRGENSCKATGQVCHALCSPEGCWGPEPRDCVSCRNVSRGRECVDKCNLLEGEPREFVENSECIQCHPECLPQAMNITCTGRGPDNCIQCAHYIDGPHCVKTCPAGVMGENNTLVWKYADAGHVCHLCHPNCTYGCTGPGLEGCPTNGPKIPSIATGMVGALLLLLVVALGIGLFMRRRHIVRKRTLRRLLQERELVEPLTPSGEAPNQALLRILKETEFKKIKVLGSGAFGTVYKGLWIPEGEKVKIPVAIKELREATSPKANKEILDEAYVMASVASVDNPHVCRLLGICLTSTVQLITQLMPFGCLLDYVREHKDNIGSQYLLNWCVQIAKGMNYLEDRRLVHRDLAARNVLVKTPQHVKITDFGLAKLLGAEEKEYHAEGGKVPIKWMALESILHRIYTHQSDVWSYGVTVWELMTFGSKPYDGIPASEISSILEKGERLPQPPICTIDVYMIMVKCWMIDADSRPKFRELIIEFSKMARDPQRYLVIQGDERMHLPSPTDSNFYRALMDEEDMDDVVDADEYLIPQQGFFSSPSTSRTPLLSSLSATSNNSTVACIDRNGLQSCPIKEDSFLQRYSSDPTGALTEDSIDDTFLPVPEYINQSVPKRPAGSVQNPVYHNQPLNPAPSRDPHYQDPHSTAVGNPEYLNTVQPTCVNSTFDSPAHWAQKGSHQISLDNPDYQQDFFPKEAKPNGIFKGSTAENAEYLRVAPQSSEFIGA
Procedure: as §1, §2, §3, §4, §5, §6

SMILES | IC50 (A431 (EGFR-WT)) | GI50 [1] | GI50 [2]
C=CC(=O)Nc1cc(Nc2nccc(N3CC4(CCCC4)c4nc(C)ccc43)n2)c(OCC(F)(F)F)nc1N(C)CCN(C)C [Example 49, N-(2-((2-(dimethylamino)ethyl) (methyl)amino)-5-((4-(5′-methyl-spiro[cyclopentane-1,3′-pyrrolo[3,2-b]pyridin]-1′(2′H)-yl)pyrimidin-2-yl)amino)-6-(2,2,2-trifluoroethoxy)pyridin-3-yl)acrylamide] | 1020 nM | 25.2 nM | 
C=CC(=O)Nc1cc(Nc2nccc(N3CC4(CCC4)c4nc(C)ccc43)n2)c(OC)nc1N(C)CCN(C)C [Example 53, N-(2-((2-(dimethylamino)ethyl) (methyl)amino)-6-methoxy-5-((4-(5′-methylspiro[cyclobutane-1,3′-pyrrolo[3,2-b]pyridin]-1′(2′H)-yl)pyrimidin-2-yl)amino)pyridin-3-yl) acrylamide] | 96.9 nM | 14.8 nM | 26.3 nM
C=CC(=O)Nc1cc(Nc2nccc(N3CC4(CCC4)c4nc(C)ccc43)n2)c(OCC(F)(F)F)nc1N(C)CCN(C)C [Example 56, N-(2-((2-(dimethylamino)ethyl) (methyl)amino)-5-((4-(5′-methylspiro [cyclobutane-1,3′-pyrrolo[3,2-b]pyridin]-1′(2′H)-yl)pyrimidin-2-yl)amino)-6-(2,2,2-trifluoroethoxy)pyridin-3-yl)acrylamide] | 348 nM | 12 nM | 35.4 nM
C=CC(=O)Nc1cc(Nc2nccc(N3CC4(CCCCC4)c4nc(C)ccc43)n2)c(OCC(F)(F)F)nc1N(C)CCN(C)C [Example 42, N-(2-((2-(dimethylamino)ethyl) (methyl)amino)-5-((4-(5′-methyl-spiro[cyclohexane-1,3′-pyrrolo[3,2-b]pyridin]-1′(2′H)-yl)pyrimidin-2-yl)amino)-6-(2,2,2-trifluoroethoxy)pyridin-3-yl)acrylamide] | 488 nM | 11.6 nM | 23.5 nM
C=CC(=O)Nc1cc(Nc2cc(N3CC(C)(C)c4nc(C)ccc43)ccn2)c(OC)nc1N(C)CCN(C)C [Example 15, N-(2-((2-(dimethylamino)ethyl) (methyl)amino)-6-methoxy-5-((4-(3,3,5-trimethyl-2,3-dihydro-1H-pyrrolo[3,2-b]pyridin-1-yl)pyridin-2-yl)amino)pyridin-3-yl)acrylamide] | 815 nM | 37 nM | 74.8 nM
C=CC(=O)Nc1cc(Nc2nccc(N3CC(C)(C)c4ncccc43)n2)c(OC(F)F)cc1N(C)CCN(C)C [Example 45, N-(4-(difluoromethoxy)-5-((4-(3,3-dimethyl-2,3-dihydro-1H-pyrrolo [3,2-b]pyridin-1-yl)pyrimidin-2-yl)amino)-2-((2-(dimethylamino)ethyl)(methyl)amino)phenyl)acrylamide] | 1070 nM | 35.8 nM | 11.7 nM
C=CC(=O)Nc1cc(Nc2ncnc(N3CC(C)(C)c4ncc(C)cc43)n2)c(OC)cc1N(C)CCN(C)C [Example 16, N-(2-((2-(dimethylamino)ethyl) (methyl)amino)-4-methoxy-5-((4-(3,3,6-trimethyl-2,3-dihydro-1H-pyrrolo[3,2-b]pyridin-1-yl)-1,3,5-triazin-2-yl)amino)phenyl)acrylamide] | 47.7 nM | 9.5 nM | 27.7 nM
C=CC(=O)Nc1cc(Nc2cc(N3CC(C)(C)c4nc(C)ccc43)ccn2)c(OC)cc1N1CCC[C@@H]1CN(C)C [Example 3] | 841 nM | 66.3 nM | 111 nM
C=CC(=O)Nc1cc(Nc2ncnc(N3CC4(CCCC4)c4nc(C)ccc43)n2)c(OC)cc1N(C)CCN(C)C [Example 29, N-(2-((2-(dimethylamino)ethyl) (methyl)amino)-4-methoxy-5-((4-(5′-methylspiro[cyclopentane-1,3′-pyrrolo[3,2-b]pyridin]-1′(2′H)-yl)-1,3,5-triazin-2-yl)amino)phenyl) acrylamide] | 22.1 nM | 20 nM | 45.5 nM
C=CC(=O)Nc1cc(Nc2ncnc(N3CC(C)(C)c4nc(C)c(C)cc43)n2)c(OCC)cc1N(C)CCN(C)C [Example 30, N-(2-((2-(dimethylamino)ethyl) (methyl)amino)-4-ethoxy-5-((4-(3,3,5,6-tetramethyl-2,3-dihydro-1H-pyrrolo[3,2-b]pyridin-1-yl)-1,3,5-triazin-2-yl)amino)phenyl)acrylamide] | 42.2 nM | 38.1 nM | 65.3 nM
C=CC(=O)Nc1cc(Nc2cc(N3CC(C)(C)c4ncccc43)ccn2)c(OC)cc1N(C)CCN(C)C [Example 1, N-(5-((4-(3,3-dimethyl-2,3-dihydro-1H-pyrrolo[3,2-b]pyridin-1-yl)pyridin-2-yl)amino)-2-((2-(dimethylamino)ethyl)(methyl)amino)-4-methoxyphenyl)acrylamide] | 898 nM | 60.2 nM | 69.8 nM
C=CC(=O)Nc1cc(Nc2ncnc(N3CC(C)(C)c4nc(Cl)ccc43)n2)c(OC)cc1N(C)CCN(C)C [Example 22, N-(5-((4-(5-chloro-3,3-dimethyl-2,3-dihydro-1H-pyrrolo[3,2-b]pyridin-1-yl)-1,3,5-triazin-2-yl)amino)-2-((2-(dimethylamino)ethyl) (methyl)amino)-4-methoxyphenyl) acrylamide] | 121 nM | 15.6 nM | 58.2 nM
C=CC(=O)Nc1cc(Nc2ncnc(N3CC(C)(C)c4nc(Cl)c(C)cc43)n2)c(OC)cc1N(C)CCN(C)C [Example 34, N-(5-((4-(5-chloro-3,3,6-trimethyl-2,3-dihydro-1H-pyrrolo[3,2-b]pyridin-1-yl)-1,3,5-triazin-2-yl)amino)-2-((2-(dimethylamino)ethyl) (methyl)amino)-4-methoxyphenyl) acrylamide] | 47.7 nM | 22.5 nM | 68.4 nM
C=CC(=O)Nc1cc(Nc2nccc(N3CC(C)(C)c4nc(-n5cncc5C)ccc43)n2)c(OC)cc1N(C)CCN(C)C [Example 59, N-(5-((4-(3,3-dimethyl-5-(5-methyl-1H-imidazole-1-yl)-2,3-dihydro-1H-pyrrolo[3,2-b]pyridin-1-yl)pyrimidin-2-yl)amino)-2-((2-(dimethylamino)ethyl)(methyl)amino)-4-methoxyphenyl)acrylamide] |  | 43.8 nM | 139 nM
C=CC(=O)Nc1cc(Nc2nccc(N3CC4(CCCCC4)c4nc(C)ccc43)n2)c(OC(F)F)cc1N(C)CCN(C)C [Example 36, N-(4-(difluoromethoxy)-2-((2-(dimethylamino)ethyl)(methyl)amino)-5-((4-(5′-methylspiro[cyclohexane-1,3′-pyrrolo[3,2-b]pyridin]-1′(2′H)-yl)pyrimidin-2-yl)amino)phenyl)acrylamide] |  | 33.2 nM | 51.5 nM
COc1cc(N(C)CCN(C)C)c(N)cc1Nc1nccc(N2CC(C)(C)c3ncc(-c4c(F)cccc4F)cc32)n1 [Example 18, N^4-(4-(6-(2,6-difluorophenyl)-3,3-dimethyl-2,3-dihydro-1H-pyrrolo [3,2-b]pyridin-1-yl)pyrimidin-2-yl)-N^1-(2-(dimethylamino)ethyl)-5-methoxy-N^1-methylbenzene-1,2,4-triamine] |  | 60 nM | 142 nM
C=CC(=O)Nc1cc(Nc2cc(N3CC(C)(C)c4nc(C)c(C)cc43)ncn2)c(OCC)cc1N(C)CCN(C)C [Example 35, N-(2-((2-(dimethylamino)ethyl) (methyl)amino)-4-ethoxy-5-((6-(3,3,5,6-tetramethyl-2,3-dihydro-1H-pyrrolo[3,2-b]pyridin-1-yl)pyrimidin-4-yl)amino)phenyl)acrylamide] |  | 40.1 nM | 94.8 nM
